Experimental data from ChEMBL document CHEMBL4673219, “Novel 5,6-disubstituted pyrrolo[2,3-d]pyrimidine derivatives as broad spectrum antiproliferative agents: Synthesis, cell based assays, kinase profile and molecular docking study” (Bioorg Med Chem, 2018).
Values joined by “and” are separate entries in the source; they are usually repeats but may differ in a detail not shown here. Equal values may be shown once.

Legend:
[1] = system: RPMI-8226; assay: Growth inhibition of human RPMI-8226 cells assessed as growth percentage at 0.01 uM incubated for 48 hrs by sulforhodamine B assay relative to control; assay type: functional; conditions: read-out: Activity
[2] = system: SF-295; assay: Growth inhibition of human SF-295 cells assessed as growth percentage at 0.1 uM incubated for 48 hrs by sulforhodamine B assay relative to control; assay type: functional; conditions: read-out: Activity
[3] = system: TK-10; assay: Growth inhibition of human TK-10 cells assessed as growth percentage at 0.01 uM incubated for 48 hrs by sulforhodamine B assay relative to control; assay type: functional; conditions: read-out: Activity
[4] = system: NCI-H23; assay: Growth inhibition of human NCI-H23 cells assessed as growth percentage at 0.01 uM incubated for 48 hrs by sulforhodamine B assay relative to control; assay type: functional; conditions: read-out: Activity
[5] = system: HCT-116; assay: Growth inhibition of human HCT-116 cells assessed as growth percentage at 0.1 uM incubated for 48 hrs by sulforhodamine B assay relative to control; assay type: functional; conditions: read-out: Activity
[6] = system: HCT-116; assay: Growth inhibition of human HCT-116 cells incubated for 48 hrs by sulforhodamine B assay; assay type: functional; conditions: for CC50: read-out: LC50 (the source's name)
[7] = system: 786-0; assay: Growth inhibition of human 786-0 cells assessed as growth percentage at 0.01 uM incubated for 48 hrs by sulforhodamine B assay relative to control; assay type: functional; conditions: read-out: Activity
[8] = system: IGROV-1; assay: Growth inhibition of human IGROV-1 cells incubated for 48 hrs by sulforhodamine B assay; assay type: functional
[9] = system: UACC-257; assay: Growth inhibition of human UACC-257 cells assessed as growth percentage at 1 uM incubated for 48 hrs by sulforhodamine B assay relative to control; assay type: functional; conditions: read-out: Activity
[10] = system: Hs-578T; assay: Growth inhibition of human Hs-578T cells assessed as growth percentage at 0.1 uM incubated for 48 hrs by sulforhodamine B assay relative to control; assay type: functional; conditions: read-out: Activity
[11] = Cytotoxicity against human HFF-1 cells assessed as cell growth inhibition by MTT assay; assay type: cell-based
[12] = system: HCC 2998; assay: Growth inhibition of human HCC 2998 cells incubated for 48 hrs by sulforhodamine B assay; assay type: functional
[13] = system: DU-145; assay: Growth inhibition of human DU-145 cells incubated for 48 hrs by sulforhodamine B assay; assay type: functional; conditions: for GI50 / TGI: DU-145
[14] = target: Fibroblast growth factor receptor 2 (Homo sapiens) (UniProt P21802); assay: Inhibition of human FGFR2 at 10 uM using myelin basic protein as substrate incubated for 40 mins in presence of [gamma33P]ATP by scintillation counting method relative to control
[15] = system: OVCAR-8; assay: Growth inhibition of human OVCAR-8 cells incubated for 48 hrs by sulforhodamine B assay; assay type: functional; conditions: for CC50: read-out: LC50 (the source's name)
[16] = system: HL-60(TB); assay: Growth inhibition of human HL-60(TB) cells assessed as growth percentage at 10 uM incubated for 48 hrs by sulforhodamine B assay relative to control; assay type: functional; conditions: read-out: Activity
[17] = system: KM12; assay: Growth inhibition of human KM12 cells assessed as growth percentage at 100 uM incubated for 48 hrs by sulforhodamine B assay relative to control; assay type: functional; conditions: read-out: Activity
[18] = system: OVCAR-4; assay: Growth inhibition of human OVCAR-4 cells assessed as growth percentage at 0.01 uM incubated for 48 hrs by sulforhodamine B assay relative to control; assay type: functional; conditions: read-out: Activity
[19] = system: M14; assay: Growth inhibition of human M14 cells assessed as growth percentage at 100 uM incubated for 48 hrs by sulforhodamine B assay relative to control; assay type: functional; conditions: read-out: Activity
[20] = system: SF-268; assay: Growth inhibition of human SF-268 cells assessed as growth percentage at 100 uM incubated for 48 hrs by sulforhodamine B assay relative to control; assay type: functional; conditions: read-out: Activity
[21] = system: MOLT-4; assay: Growth inhibition of human MOLT-4 cells assessed as growth percentage at 0.01 uM incubated for 48 hrs by sulforhodamine B assay relative to control; assay type: functional; conditions: read-out: Activity
[22] = system: CAKI-1; assay: Growth inhibition of human CAKI-1 cells assessed as growth percentage at 100 uM incubated for 48 hrs by sulforhodamine B assay relative to control; assay type: functional; conditions: read-out: Activity
[23] = system: RPMI-8226; assay: Growth inhibition of human RPMI-8226 cells incubated for 48 hrs by sulforhodamine B assay; assay type: functional
[24] = system: SN12C; assay: Growth inhibition of human SN12C cells assessed as growth percentage at 0.1 uM incubated for 48 hrs by sulforhodamine B assay relative to control; assay type: functional; conditions: read-out: Activity
[25] = system: HCT-116; assay: Growth inhibition of human HCT-116 cells assessed as growth percentage at 100 uM incubated for 48 hrs by sulforhodamine B assay relative to control; assay type: functional; conditions: read-out: Activity
[26] = system: SN12C; assay: Growth inhibition of human SN12C cells incubated for 48 hrs by sulforhodamine B assay; assay type: functional
[27] = system: SN12C; assay: Growth inhibition of human SN12C cells assessed as growth percentage at 1 uM incubated for 48 hrs by sulforhodamine B assay relative to control; assay type: functional; conditions: read-out: Activity
[28] = system: RPMI-8226; assay: Growth inhibition of human RPMI-8226 cells assessed as growth percentage at 1 uM incubated for 48 hrs by sulforhodamine B assay relative to control; assay type: functional; conditions: read-out: Activity
[29] = system: OVCAR-4; assay: Growth inhibition of human OVCAR-4 cells assessed as growth percentage at 0.1 uM incubated for 48 hrs by sulforhodamine B assay relative to control; assay type: functional; conditions: read-out: Activity
[30] = system: 786-0; assay: Growth inhibition of human 786-0 cells assessed as growth percentage at 10 uM incubated for 48 hrs by sulforhodamine B assay relative to control; assay type: functional; conditions: read-out: Activity
[31] = system: MDA-MB-468; assay: Growth inhibition of human MDA-MB-468 cells assessed as growth percent at 0.1 uM incubated for 48 hrs by sulforhodamine B assay relative to control; assay type: functional; conditions: read-out: Activity
[32] = system: NCI-H226; assay: Growth inhibition of human NCI-H226 cells assessed as growth percentage at 1 uM incubated for 48 hrs by sulforhodamine B assay relative to control; assay type: functional; conditions: read-out: Activity
[33] = system: NCI-H322M; assay: Growth inhibition of human NCI-H322M cells assessed as growth percentage at 0.01 uM incubated for 48 hrs by sulforhodamine B assay relative to control; assay type: functional; conditions: read-out: Activity
[34] = system: OVCAR-3; assay: Growth inhibition of human OVCAR-3 cells assessed as growth percentage at 100 uM incubated for 48 hrs by sulforhodamine B assay relative to control; assay type: functional; conditions: read-out: Activity
[35] = system: SW-620; assay: Growth inhibition of human SW-620 cells incubated for 48 hrs by sulforhodamine B assay; assay type: functional; conditions: for CC50: read-out: LC50 (the source's name)
[36] = system: NCI-H522; assay: Growth inhibition of human NCI-H522 cells assessed as growth percentage at 0.01 uM incubated for 48 hrs by sulforhodamine B assay relative to control; assay type: functional; conditions: read-out: Activity
[37] = system: SF-268; assay: Growth inhibition of human SF-268 cells assessed as growth percentage at 1 uM incubated for 48 hrs by sulforhodamine B assay relative to control; assay type: functional; conditions: read-out: Activity

Sequence of Fibroblast growth factor receptor 2 (Homo sapiens) (P21802 22-821 limits assumed): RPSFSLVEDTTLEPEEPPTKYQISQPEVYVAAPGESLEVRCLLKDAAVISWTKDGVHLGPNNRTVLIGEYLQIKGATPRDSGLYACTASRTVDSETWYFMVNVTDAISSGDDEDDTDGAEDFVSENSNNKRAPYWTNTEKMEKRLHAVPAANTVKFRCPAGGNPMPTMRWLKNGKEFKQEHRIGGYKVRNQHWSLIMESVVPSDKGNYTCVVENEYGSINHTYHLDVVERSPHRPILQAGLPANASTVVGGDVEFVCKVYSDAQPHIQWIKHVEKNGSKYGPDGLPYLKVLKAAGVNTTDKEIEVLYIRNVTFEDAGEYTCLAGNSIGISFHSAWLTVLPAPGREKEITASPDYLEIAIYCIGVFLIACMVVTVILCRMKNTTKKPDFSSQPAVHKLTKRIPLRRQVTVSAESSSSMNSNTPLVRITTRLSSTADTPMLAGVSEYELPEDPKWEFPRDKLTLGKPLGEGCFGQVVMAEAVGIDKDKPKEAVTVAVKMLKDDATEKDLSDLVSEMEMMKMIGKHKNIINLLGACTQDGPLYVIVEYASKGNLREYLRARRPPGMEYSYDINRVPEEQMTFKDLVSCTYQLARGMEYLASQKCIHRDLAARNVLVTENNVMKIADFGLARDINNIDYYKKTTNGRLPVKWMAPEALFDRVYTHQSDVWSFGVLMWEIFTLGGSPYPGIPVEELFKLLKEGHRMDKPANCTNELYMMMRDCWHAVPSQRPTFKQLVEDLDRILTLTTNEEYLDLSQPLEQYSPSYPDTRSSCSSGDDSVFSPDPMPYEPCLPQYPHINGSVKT

Nc1nc2[nH]c(CN3CCN(c4cc(Cl)cc(Cl)c4)CC3)c(CN3CCN(c4cc(Cl)cc(Cl)c4)CC3)c2c(=O)[nH]1
growth at 0.01 µM [1]: 102%
growth at 0.1 µM [2]: 93%
growth at 0.01 µM [3]: 101%
growth at 0.01 µM [4]: 104%
growth at 0.1 µM [5]: 99%
GI50 ([6]; Homo sapiens, HCT-116, 48 h): 1.63 µM
TGI ([6]; Homo sapiens, HCT-116, 48 h): 3.17 µM
CC50 ([6]; Homo sapiens, HCT-116, 48 h): 6.18 µM
growth at 0.01 µM [7]: 94%
GI50 [8]: 1.95 µM
TGI [8]: 3.98 µM
growth at 1 µM [9]: 93%
growth at 0.1 µM [10]: 88%
GI50 [11]: > 10 µM
GI50 ([12]; Homo sapiens, HCC 2998, 48 h): 1.7 µM
TGI ([12]; Homo sapiens, HCC 2998, 48 h): 3.16 µM
GI50 [13]: 1.92 µM
TGI [13]: 3.46 µM
CC50 ([13]; DU-145, 48 h, read-out: LC50 (the source's name)): 6.24 µM
inhibition [14]: -0.49%
GI50 ([15]; Homo sapiens, OVCAR-8, 48 h): 2.05 µM
TGI ([15]; Homo sapiens, OVCAR-8, 48 h): 4.48 µM
growth at 10 µM [16]: 24.4%
growth at 100 µM [17]: -84%
growth at 0.01 µM [18]: 95%
growth at 100 µM [19]: -54%
growth at 100 µM [20]: -59%
growth at 0.01 µM [21]: 100%
growth at 100 µM [22]: -97%
TGI ([23]; Homo sapiens, RPMI-8226): 6.92 µM
GI50 ([23]; Homo sapiens, RPMI-8226, 48 h): 2.41 µM
growth at 0.1 µM [24]: 99%
growth at 100 µM [25]: -59%
GI50 [26]: 1.91 µM
TGI [26]: 3.91 µM
growth at 1 µM [27]: 95%
growth at 1 µM [28]: 92%
growth at 0.1 µM [29]: 95%
growth at 10 µM [30]: 72.6%
growth at 0.1 µM [31]: 94%
growth at 1 µM [32]: 93%
growth at 0.01 µM [33]: 102%
growth at 100 µM [34]: -84%
GI50 ([35]; Homo sapiens, SW-620, 48 h): 1.72 µM
TGI ([35]; Homo sapiens, SW-620, 48 h): 3.5 µM
CC50 ([35]; Homo sapiens, SW-620, 48 h): 7.12 µM
growth at 0.01 µM [36]: 95%
growth at 1 µM [37]: 94%

CCCCCCCC(=O)Nc1nc2[nH]c(CN3CCN(Cc4cccc(F)c4)CC3)c(CN3CCN(Cc4cccc(F)c4)CC3)c2c(=O)[nH]1
growth at 0.01 µM [1]: 101%
growth at 0.1 µM [2]: 94%
growth at 0.01 µM [3]: 91%
growth at 0.01 µM [4]: 98%
growth at 0.1 µM [5]: 93%
GI50 ([6]; 48 h): 0.17 µM
TGI ([6]; 48 h): 0.32 µM
CC50 ([6]; 48 h): 0.6 µM
GI50 ([6]; Homo sapiens, HCT-116, 48 h): 0.171 µM
TGI ([6]; Homo sapiens, HCT-116, 48 h): 0.321 µM
CC50 ([6]; Homo sapiens, HCT-116, 48 h): 0.601 µM
growth at 0.01 µM [7]: 98%
GI50 [8]: 1.43 µM
TGI [8]: 3.2 µM
CC50 ([8]; read-out: LC50 (the source's name)): 7.14 µM
growth at 1 µM [9]: -48%
growth at 0.1 µM [10]: 96%
GI50 [11]: > 10 µM
GI50 ([12]; 48 h): 0.25 µM
TGI ([12]; 48 h): 0.57 µM
GI50 ([12]; Homo sapiens, HCC 2998, 48 h): 0.248 µM
TGI ([12]; Homo sapiens, HCC 2998, 48 h): 0.573 µM
CC50 ([12]; Homo sapiens, HCC 2998, read-out: LC50 (the source's name)): 2.62 µM
GI50 [13]: 1.1 µM
TGI [13]: 2.42 µM
inhibition [14]: 25.9%
GI50 ([15]; 48 h): 0.21 µM
TGI ([15]; 48 h): 0.41 µM
CC50 ([15]; 48 h): 0.8 µM
GI50 ([15]; Homo sapiens, OVCAR-8, 48 h): 0.205 µM
TGI ([15]; Homo sapiens, OVCAR-8, 48 h): 0.405 µM
CC50 ([15]; Homo sapiens, OVCAR-8, 48 h): 0.801 µM
growth at 10 µM [16]: -60.1%
growth at 100 µM [17]: -47%
growth at 0.01 µM [18]: 98%
growth at 100 µM [19]: -73%
growth at 100 µM [20]: -77%
growth at 0.01 µM [21]: 95%
growth at 100 µM [22]: -96%
GI50 ([23]; 48 h): 0.36 µM
LC50 ([23]; 48 h): 100 µM and > 1 µM
GI50 ([23]; Homo sapiens, RPMI-8226, 48 h): 0.363 µM
growth at 0.1 µM [24]: 98%
growth at 100 µM [25]: -69%
GI50 [26]: 1.48 µM
LC50 [26]: 6.85 µM
TGI [26]: 3.18 µM
growth at 1 µM [27]: 76%
growth at 1 µM [28]: 13%
growth at 0.1 µM [29]: 84%
growth at 10 µM [30]: -100%
growth at 0.1 µM [31]: 95%
growth at 1 µM [32]: 91%
growth at 0.01 µM [33]: 94%
growth at 100 µM [34]: -73%
GI50 ([35]; 48 h): 0.19 µM
TGI ([35]; 48 h): 0.38 µM
CC50 ([35]; 48 h): 0.74 µM
GI50 ([35]; Homo sapiens, SW-620, 48 h): 0.191 µM
TGI ([35]; Homo sapiens, SW-620, 48 h): 0.377 µM
CC50 ([35]; Homo sapiens, SW-620, 48 h): 0.744 µM
growth at 0.01 µM [36]: 106%
growth at 1 µM [37]: 65%
